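Interpolation was linear, between the two tested concentrations surrounding the appropriate level; five concentrations were tested over 48 hours in 96-well plates. At the GI50, growth is halved. TGI denotes the concentration required for complete inhibition of growth.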
Key:
Experiment in all cases: NCI anticancer screen, dose series, 48 h
DMS 114 small cell lung = system: DMS 114 small cell lung
DMS 273 small cell lung = system: DMS 273 small cell lung
DLD-1 colon = system: DLD-1 colon
HS 578T breast = system: HS 578T breast
MDA-MB-435 = system: MDA-MB-435
MDA-N = system: MDA-N
NCI/ADR-RES ovarian = system: NCI/ADR-RES ovarian
PC-3 prostate = system: PC-3 prostate
T-47D breast = system: T-47D breast

Row | Compound | TGI (DMS 114 small cell lung) | TGI (DMS 273 small cell lung) | TGI (DLD-1 colon) | further results
1 | CON1C(=O)C2(CCCCC2)C(=O)C12C=CC(C)CC2 (stereo not given) | > 100 µM | > 100 µM |  | 
2 | NCCCNCc1c2ccccc2c(CNCCCN)c2ccccc12 | 37.8 µM |  | > 100 µM | 
3 | Oc1cccc2ccc(SSc3ccc4cccc(O)c4n3)nc12 |  |  |  | TGI (HS 578T breast): > 100 µM; TGI (MDA-MB-435): 37.5 µM; TGI (MDA-N): 38.6 µM; TGI (NCI/ADR-RES ovarian): 65.6 µM; TGI (PC-3 prostate): 29.9 µM; TGI (T-47D breast): 38.6 µM
4 | Oc1ccc(O)c(-n2cccn2)c1 | 89.7 µM | > 100 µM | > 100 µM | 
5 | COc1nc(NC2OC(COC(C)=O)C(OC(C)=O)C(OC(C)=O)C2OC(C)=O)c(N=C(C)C(C)=O)c(=O)n1C (stereo not given) | > 100 µM |  | > 100 µM | 
6 | CSc1nc2c(nc(N)n2C2OC(CO)C(O)C(O)C2O)c(=O)[nH]1 (stereo not given) | > 100 µM |  | > 100 µM | 
7 | COC(=O)CCCCCOS(=O)(=O)c1ccc(C)cc1 | > 100 µM | > 100 µM | > 100 µM | 
8 | C[N+]1(CCNP(=S)(NCC[N+]2(C)Cc3c(ccc4c3OCO4)C3C2c2cc4c(cc2C[C@@H]3O)OCO4)NCC[N+]2(C)Cc3c(ccc4c3OCO4)C3C2c2cc4c(cc2C[C@@H]3O)OCO4)Cc2c(ccc3c2OCO3)C2C1c1cc3c(cc1C[C@H]2O)OCO3 (stereo not given in full) |  | < 0.00191 µM |  | GI50 (DLD-1 colon): 1.68 µM
9 | OC(c1cc2ccccc2[nH]1)C(O)(c1cc2ccccc2[nH]1)c1cc2ccccc2[nH]1 (stereo not given) | 29 µM | 48.8 µM | 48 µM | 
10 | C/C(=N\NC(=O)c1ccccc1O)c1c(O)cc(C)oc1=O | > 100 µM |  | > 100 µM | 
11 | C/C(=N\N)C(CN1CCOCC1)C(c1ccccc1)c1c(O)c2ccccc2oc1=O (stereo not given) | > 100 µM | > 100 µM | > 100 µM | TGI (HS 578T breast): > 100 µM; TGI (MDA-MB-435): > 100 µM; TGI (MDA-N): > 100 µM; TGI (NCI/ADR-RES ovarian): > 100 µM; TGI (PC-3 prostate): > 100 µM; TGI (T-47D breast): > 100 µM
12 | Cc1ccc(S(=O)(=O)NC(Cc2ccccc2)C(=O)CCl)cc1 (stereo not given) |  |  |  | TGI (HS 578T breast): 11.3 µM; TGI (MDA-MB-435): 30.3 µM; TGI (MDA-N): 27.8 µM; TGI (NCI/ADR-RES ovarian): 62.9 µM; TGI (PC-3 prostate): 29.5 µM
13 | O=C1CC=C2C3CC4N(CCC45c4ccccc4N1C25)C/C3=C\CO (stereo not given) |  |  |  | TGI (HS 578T breast): > 100 µM; TGI (MDA-MB-435): > 100 µM; TGI (MDA-N): > 100 µM; TGI (NCI/ADR-RES ovarian): > 100 µM; TGI (PC-3 prostate): > 100 µM; TGI (T-47D breast): > 100 µM
14 | CC(=O)O[C@H]1CC[C@@]2(C)C(=CC[C@H]3C(CC#N)[C@@](C)(C#N)CCC32)C1 (stereo not given in full) | > 100 µM | > 100 µM | > 100 µM | 
15 | CC(=O)NNc1ncc(C(=O)/C=C/c2ccccc2C)s1 | > 100 µM | > 100 µM | > 100 µM | 
16 | COc1ccc2c(c1)c1ccc3c(c1n2C)C(=O)C=CC3=O | 47.4 µM | > 56.3 µM | 20.9 µM | TGI (HS 578T breast): 28.1 µM; TGI (MDA-MB-435): 22.7 µM; TGI (MDA-N): 24.1 µM; TGI (NCI/ADR-RES ovarian): 42.7 µM; TGI (PC-3 prostate): 26.2 µM; TGI (T-47D breast): 6.25 µM
17 | COc1cccc(/C=C2\N=C(Cl)OC2=O)c1O | > 100 µM | > 100 µM | > 100 µM | 
18 | CCCCSC1CCSc2c1ccc1ccccc21 (stereo not given) | > 100 µM |  | > 100 µM | 
19 | NC1=C(O)/C(=N/NS(=O)(=O)c2ccccc2)C(c2ccc3c(c2)OCO3)O1 (stereo not given) | > 100 µM | > 100 µM | > 100 µM | 
20 | Clc1ccc(-c2nnc(-c3nn(-c4ccccc4)c4nc5ccccc5nc34)o2)cc1 | > 100 µM | > 100 µM | > 100 µM | 
21 | COc1ccc(/C=C/c2cc(OC)c(OC)c(OC)c2)cc1OC | > 100 µM | > 100 µM | > 100 µM | 
22 | CCCC(=O)Oc1ccc(/C=N/NC(N)=S)nc1 | > 100 µM | > 100 µM | > 100 µM | 
23 | C=CCN=C1NC(=O)C(CC(=O)Nc2cccc(Cl)c2)S1 (stereo not given) | > 100 µM | > 100 µM | > 100 µM | 
24 | CC(=O)N(N=O)c1ccc(N(N=O)C(C)=O)cc1 | > 100 µM | > 100 µM | > 100 µM | 
25 | COc1ccc(Cc2ccc3[nH]c(=O)cc(C)c3c2)cc1S(=O)(=O)O |  |  |  | TGI (HS 578T breast): > 100 µM; TGI (MDA-MB-435): > 100 µM; TGI (MDA-N): > 100 µM; TGI (NCI/ADR-RES ovarian): > 100 µM; TGI (PC-3 prostate): > 100 µM; TGI (T-47D breast): > 100 µM

Row | Compound | TGI (DMS 114 small cell lung) | TGI (DMS 273 small cell lung) | TGI (DLD-1 colon) | further results
26 | Cn1nc(-c2ccccc2)c2c(/C=C/c3ccc(F)cc3)onc2c1=O |  | > 100 µM | > 100 µM | 
27 | CO/S(=N/S(=O)(=O)c1ccccc1)c1ccccc1[N+](=O)[O-] (stereo not given) |  | > 100 µM | > 100 µM | 
28 | CCCCCCCCCCNC(=S)OC | 44.9 µM | > 100 µM | > 100 µM | 
29 | C=C1C2CC(OC(C)=O)C3(C)C(c4ccoc4)OC(=O)[C@@H](O)[C@]13OC1C[C@H](OC(C)=O)C(C)(C)[C@H](C(O)C(=O)OC)[C@]12C (stereo not given in full) | > 100 µM | > 100 µM | > 100 µM | 
30 | O=CC1=CCCN(CCc2c[nH]c3ccccc23)C1 | 146 µM | 94.4 µM | 111 µM | 
31 | O=[N+]([O-])c1cc(I)cc(/C=N/NS(=O)(=O)c2ccc(F)cc2)c1O | 52.2 µM | 48.8 µM | > 100 µM | 
32 | O=C(O)C(Cc1ccccc1)N=Cc1nc(-c2ccccc2)oc1O (stereo not given) |  | > 100 µM | > 100 µM | 
33 | CC(=O)OC1CC2C(C)(C)C(=O)C=C[C@]2(C)C2CCC3(C)C(c4ccoc4)C(=O)C4OC43[C@]12C (stereo not given in full) | 33.3 µM | 75.6 µM | 34 µM | 
34 | OCC1CC2C=CCC(C2)C1 (stereo not given) | > 100 µM | > 100 µM | > 100 µM | 
35 | CC(C)(C)OC(=O)NC(Cc1ccccc1)C(=S)N1CCCC1 (stereo not given) | > 100 µM | > 100 µM | > 100 µM | 
36 | Cn1cnc(SC2=CC(=O)C=C3S[C@H]4C[C@@]23c2c(c(O)c3c5c2=NCCC=5C=N3)N4)c1CC(N)C(=O)O (stereo not given in full) | 4.31 µM | 20.3 µM | 26.3 µM | GI50 (DLD-1 colon): 12.6 µM; GI50 (DMS 273 small cell lung): 7.33 µM; GI50 (HS 578T breast): 39.7 µM; TGI (HS 578T breast): 96.1 µM; GI50 (MDA-MB-435): 1880 nM; TGI (MDA-MB-435): 3.44 µM; GI50 (MDA-N): 2000 nM; TGI (MDA-N): 3.63 µM; GI50 (NCI/ADR-RES ovarian): 23.7 µM; TGI (NCI/ADR-RES ovarian): 56.7 µM; GI50 (PC-3 prostate): 13.4 µM; TGI (PC-3 prostate): 51.8 µM; GI50 (T-47D breast): 20.2 µM; TGI (T-47D breast): 38.3 µM
37 | Oc1ccc(Br)cc1C=NC1CCCCC1 |  |  |  | TGI (HS 578T breast): > 100 µM; TGI (MDA-MB-435): > 100 µM; TGI (MDA-N): > 100 µM; TGI (NCI/ADR-RES ovarian): > 100 µM; TGI (PC-3 prostate): > 100 µM; TGI (T-47D breast): 75.5 µM
38 | O=C(NC1CCCCC1)NC12CC3CC(CC(F)(C3)C1)C2 | > 100 µM | > 100 µM | > 100 µM | 
39 | Cc1ccc([N+](=O)[O-])cc1NC(=O)C(=O)Cc1nc2ccc(C(=O)c3ccccc3)cc2[nH]c1=O | > 100 µM | > 100 µM | > 100 µM | 
40 | O=C(N/C(=C\c1cccc([N+](=O)[O-])c1)c1nc2c3c(ccc2[nH]1)C(=O)c1ccccc1C3=O)c1ccccc1 | > 100 µM |  | > 100 µM | 
41 | Cc1ccc(NC(=O)C(=O)C2C(=O)NC(=O)NC2=O)c(C)c1 | > 100 µM | > 100 µM | > 100 µM | 
42 | Cn1c(=O)nc2n(-c3ccc(F)c(F)c3)c3ccccc3nc-2c1=O | 18 µM | 36.9 µM | 85.3 µM | 
43 | CC1=NC(C)=C(/C(C)=N/NC(=O)c2ccccc2O)C(C)/C1=C(/C)NNC(=O)c1ccccc1O (stereo not given) | 44.1 µM |  | > 100 µM | 
44 | CCOC(=O)NC(=O)c1cn(C2CCCCC2)c(=O)n(C)c1=O | > 100 µM | > 100 µM | > 100 µM | 
45 | C=CCC1(CN(C)C)CC/C(=C\c2cc(OC)c(OC)c(OC)c2)C1=O (stereo not given) | 39.5 µM |  | 38.5 µM | 
46 | CC(C)(C)c1cc[n+](C[n+]2ccc(C(C)(C)C)cc2)cc1 |  |  |  | TGI (HS 578T breast): > 100 µM; TGI (MDA-MB-435): > 100 µM; TGI (MDA-N): > 100 µM; TGI (NCI/ADR-RES ovarian): > 100 µM; TGI (PC-3 prostate): > 100 µM; TGI (T-47D breast): > 100 µM
47 | Nc1ccc(C(=O)CC2(O)C(=O)Nc3ccccc32)cc1 (stereo not given) | > 100 µM | > 100 µM | > 100 µM | 
48 | COc1cc(/C=C2\C[C@H]3[C@@H]4CC=C5C[C@@H](O)CC[C@]5(C)[C@H]4CC[C@]3(C)[C@H]2O)ccc1OCCN1CCCCC1 |  |  |  | GI50 (HS 578T breast): 1.44 µM; TGI (HS 578T breast): > 10.7 µM; GI50 (MDA-MB-435): 945 nM; TGI (MDA-MB-435): 1.8 µM; GI50 (NCI/ADR-RES ovarian): 1.46 µM; TGI (NCI/ADR-RES ovarian): 4.66 µM; GI50 (PC-3 prostate): 1.03 µM; TGI (PC-3 prostate): 7.01 µM; GI50 (T-47D breast): 2.05 µM; TGI (T-47D breast): 16.2 µM
49 | CN1CCN(c2ccncc2S(=O)(=O)N2CCN(C)CC2)CC1 |  |  |  | TGI (HS 578T breast): > 100 µM; TGI (MDA-MB-435): > 100 µM; TGI (MDA-N): > 100 µM; TGI (NCI/ADR-RES ovarian): > 100 µM; TGI (PC-3 prostate): > 100 µM; TGI (T-47D breast): > 100 µM
50 | CCCC[C@H](CCc1ccccc1)N(C(=O)OC)N1CCC[C@H]1COC | 30.2 µM | 35.6 µM | 34.8 µM | 

Source: PubChem BioAssay (NCI)
